From patent US6346514B1, “Pharmaceutical lysine-containing polypeptide compositions and methods of use thereof” (priority 1991, dated 2002)

Tested on: Vibrio anguillarum (V-775)
Experiment: Vaccine augmentation in Rainbow trout challenged with Vibrio anguillarum
Type: in vivo, Rainbow trout (Oncorhynchus mykiss)
Procedure: In the present investigation, fish were obtained and inoculated at approximately 12 weeks of age. Immunologic studies were conducted under a variety of conditions in which fish were provided with vaccination to observe vaccine augmentation, and under conditions in which no vaccine was provided prior to inoculum. The effects of exposure time, HM897 concentration, and vaccine on mortalities relative to control studies in which no HM897 was administered provided data for analysis of the immunologic effect of HM897.
The study was conducted using Rainbow trout (Oncorhynchus mykiss) to compare the effects of a standard fish vaccine to the protection provided by varying dosages of HM897. The fish were challenged with Vibrio anguillarum (V-775), a bacteria that causes fatal vibriosis, typically 3-5 days following pathogen exposure.
Rainbow Trout (Oncorhynchus mykiss) weighing approximately 5 grams were used as test organisms. The fish were obtained from Cran-Mar Trout Farm. Upon arrival at BRL's facility, the fish were quarantined for a minimum of seven days, and observed to be disease free. During this period, the fish were held at a stable temperature. There was consistent water quality in an aerated flow-through system with a flow rate of approximately 30 liters per hour. During the holding period the fish were observed daily for signs of disease, stress, injury, hemorrhaging, and external parasite. The fish were not fed 48 hours prior to testing.
The Rainbow trout used in this study weighed an average of 5 grams. The fish were divided into 21 groups with 50 fish per group. Each group of 50 fish was maintained in two 10-gallon tanks (25 fish/tank).
The level of bacterial dilution to achieve a LD75 (the level designed to kill 75% of the non-vaccinated fish) was a dilution of 10^−4. to 10^−5. The challenge bacteria were grown for 48 hours at 25° C in trypticase soy broth. The 10^−4 dilution was made from this broth in 0.9% saline. All fish excepting the control group that received no bacterial challenge were inoculated 7 days after exposure to HM897.
Rainbow trout hatchling were exposed to the concentration of HM897 as described below. Some of the fish had been vaccinated while others had received no vaccination. In each tank, fifty vaccinated or unvaccinated fish were exposed for a period of 5 minutes to HM897, and then removed and placed in an assigned tank according to the group number.
The positive control group (III) received a vaccine made from Vibrio anguillarum (V-775). This was made through a fermentation and extraction process in the BRL laboratory facility and is equivalent to the aquaculture industry standard vibrio vaccine.
All groups scheduled to be challenged with the Vibrio anguillarum bacterium were challenged at the LD75 dilution on day seven of the experiment by i.p. injection of 0.1 mL of 10^−4 bacterial dilution. The fish were observed daily for mortalities.

Thr-Ala-Glu-Glu-Lys (TAEEK) [HM897]
64%: Percent Mortalities (Group Vd: not vaccinated, HM897 150 μg/38 liters)
20%: Percent Mortalities (Group IVc: vaccinated, HM897 50 μg/38 liters)
7: Cumulative Mortalities (Day 18, Group IVb: vaccinated, HM897 10 μg/38 liters) | Cumulative Mortalities (Day 19, Group IVb: vaccinated, HM897 10 μg/38 liters) | Cumulative Mortalities (Day 20, Group IVb: vaccinated, HM897 10 μg/38 liters) | Cumulative Mortalities (Day 21, Group IVb: vaccinated, HM897 10 μg/38 liters) | Total Mortalities (Table XI-3, Group IVb: vaccinated, HM897 10 μg/38 liters) | Total Mortalities (Table XI-4, Group IVb: vaccinated, HM897 10 μg/38 liters)
66%: Percent Mortalities (Group Va: not vaccinated, HM897 10 μg/38 liters) | Percent Mortalities (Group Vb: not vaccinated, HM897 25 μg/38 liters)
17: Cumulative Mortalities (Day 17, Group IVd: vaccinated, HM897 100 μg/38 liters) | Cumulative Mortalities (Day 18, Group IVd: vaccinated, HM897 100 μg/38 liters) | Cumulative Mortalities (Day 19, Group IVd: vaccinated, HM897 100 μg/38 liters) | Cumulative Mortalities (Day 20, Group IVd: vaccinated, HM897 100 μg/38 liters) | Cumulative Mortalities (Day 21, Group IVd: vaccinated, HM897 100 μg/38 liters) | Total Mortalities (Table XI-3, Group IVd: vaccinated, HM897 100 μg/38 liters) | Total Mortalities (Table XI-4, Group IVd: vaccinated, HM897 100 μg/38 liters)
34%: Percent Mortalities (Group IVd: vaccinated, HM897 100 μg/38 liters)
68%: Percent Mortalities (Group Vc: not vaccinated, HM897 75 μg/38 liters) | Percent Mortalities (Group Ve: not vaccinated, HM897 250 μg/38 liters)
14%: Percent Mortalities (Group IVb: vaccinated, HM897 10 μg/38 liters)
32: Cumulative Mortalities (Day 18, Group Vd: not vaccinated, HM897 150 μg/38 liters) | Cumulative Mortalities (Day 19, Group Vd: not vaccinated, HM897 150 μg/38 liters) | Cumulative Mortalities (Day 20, Group Vd: not vaccinated, HM897 150 μg/38 liters) | Cumulative Mortalities (Day 21, Group Vd: not vaccinated, HM897 150 μg/38 liters) | Total Mortalities (Table XI-3, Group Vd: not vaccinated, HM897 150 μg/38 liters) | Total Mortalities (Table XI-4, Group Vd: not vaccinated, HM897 150 μg/38 liters)
10: Cumulative Mortalities (Day 18, Group IVc: vaccinated, HM897 50 μg/38 liters) | Cumulative Mortalities (Day 19, Group IVc: vaccinated, HM897 50 μg/38 liters) | Cumulative Mortalities (Day 20, Group IVc: vaccinated, HM897 50 μg/38 liters) | Cumulative Mortalities (Day 21, Group IVc: vaccinated, HM897 50 μg/38 liters) | Total Mortalities (Table XI-3, Group IVc: vaccinated, HM897 50 μg/38 liters) | Total Mortalities (Table XI-4, Group IVc: vaccinated, HM897 50 μg/38 liters)
statistically significant effect: augmentation of vaccinations (vaccinated fish exposed to HM897)
33: Cumulative Mortalities (Day 17, Group Va: not vaccinated, HM897 10 μg/38 liters) | Cumulative Mortalities (Day 17, Group Vb: not vaccinated, HM897 25 μg/38 liters) | Cumulative Mortalities (Day 18, Group Va: not vaccinated, HM897 10 μg/38 liters) | Cumulative Mortalities (Day 18, Group Vb: not vaccinated, HM897 25 μg/38 liters) | Cumulative Mortalities (Day 19, Group Va: not vaccinated, HM897 10 μg/38 liters) | Cumulative Mortalities (Day 19, Group Vb: not vaccinated, HM897 25 μg/38 liters) | Cumulative Mortalities (Day 20, Group Va: not vaccinated, HM897 10 μg/38 liters) | Cumulative Mortalities (Day 20, Group Vb: not vaccinated, HM897 25 μg/38 liters) | Cumulative Mortalities (Day 21, Group Va: not vaccinated, HM897 10 μg/38 liters) | Cumulative Mortalities (Day 21, Group Vb: not vaccinated, HM897 25 μg/38 liters) | Total Mortalities (Table XI-3, Group Va: not vaccinated, HM897 10 μg/38 liters) | Total Mortalities (Table XI-3, Group Vb: not vaccinated, HM897 25 μg/38 liters) | Total Mortalities (Table XI-4, Group Va: not vaccinated, HM897 10 μg/38 liters) | Total Mortalities (Table XI-4, Group Vb: not vaccinated, HM897 25 μg/38 liters)
26%: Percent Mortalities (Group IVa: vaccinated, HM897 2.5 μg/38 liters)
13: Cumulative Mortalities (Day 18, Group IVa: vaccinated, HM897 2.5 μg/38 liters) | Cumulative Mortalities (Day 19, Group IVa: vaccinated, HM897 2.5 μg/38 liters) | Cumulative Mortalities (Day 20, Group IVa: vaccinated, HM897 2.5 μg/38 liters) | Cumulative Mortalities (Day 21, Group IVa: vaccinated, HM897 2.5 μg/38 liters) | Total Mortalities (Table XI-3, Group IVa: vaccinated, HM897 2.5 μg/38 liters) | Total Mortalities (Table XI-4, Group IVa: vaccinated, HM897 2.5 μg/38 liters)
no protection: protection against the bacterial infection (HM897 exposure without vaccine (Groups Va to Ve))
34: Cumulative Mortalities (Day 17, Group Vc: not vaccinated, HM897 75 μg/38 liters) | Cumulative Mortalities (Day 18, Group Vc: not vaccinated, HM897 75 μg/38 liters) | Cumulative Mortalities (Day 19, Group Vc: not vaccinated, HM897 75 μg/38 liters) | Cumulative Mortalities (Day 20, Group Vc: not vaccinated, HM897 75 μg/38 liters) | Cumulative Mortalities (Day 21, Group Vc: not vaccinated, HM897 75 μg/38 liters) | Total Mortalities (Table XI-3, Group Vc: not vaccinated, HM897 75 μg/38 liters) | Total Mortalities (Table XI-3, Group Ve: not vaccinated, HM897 250 μg/38 liters) | Total Mortalities (Table XI-4, Group Vc: not vaccinated, HM897 75 μg/38 liters) | Total Mortalities (Table XI-4, Group Ve: not vaccinated, HM897 250 μg/38 liters)
